Columns and labels:
Assay type in all cases: biochemical
human pol η = biological target: T1, human pol η (Homo sapiens, UniProt Q9Y253); test: DNA polymerase assay, pol η
T1 construct: A truncated form of human pol η (residues 1–511); His6 (C); made in house; host or cells: E. coli
From the text: (§1) Pol α was purified from calf thymus by immuno-affinity column chromatography, as described by Tamai et al.. Recombinant rat pol β was purified from E. coli JMpβ5, as described by Date et al.. The human pol γ catalytic gene was cloned into pFastBac. Histidine-tagged enzyme was expressed using the BAC-TO-BAC HT Baculovirus Expression System according to the supplier’s manual (Life Technologies, MD, USA) and purified using ProBoundresin (Invitrogen Japan, Tokyo, Japan). Human pols δ and ɛ were purified by nuclear fractionation of human peripheral blood cancer cells (Molt-4) using the second subunit of pols δ and ɛ-conjugated affinity column chromatography, respectively. A truncated form of human pol η (residues 1–511) tagged with His6 at its C-terminal was expressed in E. coli cells and purified as described by Kusumoto et al.. A recombinant mouse pol ι tagged with His6 at its C-terminal was expressed and purified by Ni-NTA column chromatography as described elsewhere (Masutani et al., in preparation). […]
(§2) The compounds were dissolved in distilled dimethyl sulfoxide (DMSO) at various concentrations and sonicated for 30 sec. […] Activity without the inhibitor was considered 100%, and the remaining activity at each concentration of the inhibitor was determined relative to this value. […]

human pol κ = biological target: T2, human pol κ (Homo sapiens, UniProt Q9UBT6); test: DNA polymerase assay, pol κ
T2 construct: A truncated form of pol κ (residues 1–560) with 6 x His-tags attached at the C-terminus; 6xHis (C); made in house; host or cells: E. coli
T2 sequence (Q9UBT6 1-560): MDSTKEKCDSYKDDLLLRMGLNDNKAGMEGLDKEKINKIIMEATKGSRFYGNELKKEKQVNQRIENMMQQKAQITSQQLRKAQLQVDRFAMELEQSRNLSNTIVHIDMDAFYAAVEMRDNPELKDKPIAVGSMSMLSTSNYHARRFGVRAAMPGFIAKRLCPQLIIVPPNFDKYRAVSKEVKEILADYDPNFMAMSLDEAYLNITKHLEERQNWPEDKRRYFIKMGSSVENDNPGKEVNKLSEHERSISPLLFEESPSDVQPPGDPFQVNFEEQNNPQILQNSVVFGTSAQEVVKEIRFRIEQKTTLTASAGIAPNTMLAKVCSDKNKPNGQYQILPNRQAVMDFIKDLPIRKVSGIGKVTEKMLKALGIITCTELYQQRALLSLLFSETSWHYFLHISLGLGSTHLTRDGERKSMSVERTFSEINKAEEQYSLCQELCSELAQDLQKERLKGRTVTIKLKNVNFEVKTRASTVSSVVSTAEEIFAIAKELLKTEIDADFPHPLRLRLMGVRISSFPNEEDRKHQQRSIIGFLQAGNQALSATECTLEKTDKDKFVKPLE
From the text: as §1, §2

rat pol β = biological target: T3, rat pol β (Rattus norvegicus, UniProt P06766); test: DNA polymerase assay, pol β; details: 100 μM
T3 construct: made in house; host or cells: E. coli JMpβ5
From the text: as §1, §2

calf thymus TdT = biological target: T4, calf thymus TdT (Bos taurus, UniProt P06526); test: DNA polymerase assay, TdT; details: 100 μM
T4 construct: purchased Stratagene Cloning Systems (La Jolla, CA, USA)
From the text: as §1, §2

fruit fly pol δ = biological target: T5, fruit fly pol δ (Drosophila melanogaster, UniProt P54358); test: DNA polymerase assay, insect pol δ; details: 100 μM
T5 construct: purified from early embryos of Drosophila melanogaster; from tissue; host or cells: early embryos of Drosophila melanogaster
T5 sequence (P54358 whole entry): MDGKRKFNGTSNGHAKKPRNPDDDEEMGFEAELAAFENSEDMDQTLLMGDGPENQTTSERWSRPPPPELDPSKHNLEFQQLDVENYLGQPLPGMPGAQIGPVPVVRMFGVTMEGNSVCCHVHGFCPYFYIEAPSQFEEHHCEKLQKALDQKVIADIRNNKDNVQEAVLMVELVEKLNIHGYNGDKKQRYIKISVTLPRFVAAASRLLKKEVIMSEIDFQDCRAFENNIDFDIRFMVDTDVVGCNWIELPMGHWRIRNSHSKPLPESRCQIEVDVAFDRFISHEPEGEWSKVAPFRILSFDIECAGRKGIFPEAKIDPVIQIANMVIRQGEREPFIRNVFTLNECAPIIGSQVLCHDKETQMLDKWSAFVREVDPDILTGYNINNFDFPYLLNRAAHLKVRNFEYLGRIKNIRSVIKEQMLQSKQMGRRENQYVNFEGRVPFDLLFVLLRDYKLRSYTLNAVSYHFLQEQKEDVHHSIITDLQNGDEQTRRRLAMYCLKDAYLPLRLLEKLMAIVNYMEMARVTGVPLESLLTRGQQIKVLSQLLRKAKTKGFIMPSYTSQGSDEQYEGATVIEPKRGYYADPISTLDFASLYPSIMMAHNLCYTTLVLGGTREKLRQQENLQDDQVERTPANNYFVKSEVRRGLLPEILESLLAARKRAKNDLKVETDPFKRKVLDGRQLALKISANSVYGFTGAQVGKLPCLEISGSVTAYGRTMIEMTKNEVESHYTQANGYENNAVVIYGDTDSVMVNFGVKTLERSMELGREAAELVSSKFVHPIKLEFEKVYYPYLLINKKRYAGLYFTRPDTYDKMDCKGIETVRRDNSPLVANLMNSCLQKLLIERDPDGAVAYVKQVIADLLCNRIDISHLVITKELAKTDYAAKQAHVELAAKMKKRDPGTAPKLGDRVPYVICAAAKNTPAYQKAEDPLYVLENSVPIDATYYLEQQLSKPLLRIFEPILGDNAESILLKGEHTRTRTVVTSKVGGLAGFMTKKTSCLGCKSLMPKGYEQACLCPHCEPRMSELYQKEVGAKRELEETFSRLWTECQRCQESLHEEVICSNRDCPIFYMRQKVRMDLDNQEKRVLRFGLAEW

T4 pol = biological target: T6, T4 pol (Enterobacteria phage T4, UniProt P04415); test: DNA polymerase assay, T4 pol; details: 100 μM
T6 construct: purchased Takara Bio (Tokyo, Japan)
T6 sequence (P04415 whole entry): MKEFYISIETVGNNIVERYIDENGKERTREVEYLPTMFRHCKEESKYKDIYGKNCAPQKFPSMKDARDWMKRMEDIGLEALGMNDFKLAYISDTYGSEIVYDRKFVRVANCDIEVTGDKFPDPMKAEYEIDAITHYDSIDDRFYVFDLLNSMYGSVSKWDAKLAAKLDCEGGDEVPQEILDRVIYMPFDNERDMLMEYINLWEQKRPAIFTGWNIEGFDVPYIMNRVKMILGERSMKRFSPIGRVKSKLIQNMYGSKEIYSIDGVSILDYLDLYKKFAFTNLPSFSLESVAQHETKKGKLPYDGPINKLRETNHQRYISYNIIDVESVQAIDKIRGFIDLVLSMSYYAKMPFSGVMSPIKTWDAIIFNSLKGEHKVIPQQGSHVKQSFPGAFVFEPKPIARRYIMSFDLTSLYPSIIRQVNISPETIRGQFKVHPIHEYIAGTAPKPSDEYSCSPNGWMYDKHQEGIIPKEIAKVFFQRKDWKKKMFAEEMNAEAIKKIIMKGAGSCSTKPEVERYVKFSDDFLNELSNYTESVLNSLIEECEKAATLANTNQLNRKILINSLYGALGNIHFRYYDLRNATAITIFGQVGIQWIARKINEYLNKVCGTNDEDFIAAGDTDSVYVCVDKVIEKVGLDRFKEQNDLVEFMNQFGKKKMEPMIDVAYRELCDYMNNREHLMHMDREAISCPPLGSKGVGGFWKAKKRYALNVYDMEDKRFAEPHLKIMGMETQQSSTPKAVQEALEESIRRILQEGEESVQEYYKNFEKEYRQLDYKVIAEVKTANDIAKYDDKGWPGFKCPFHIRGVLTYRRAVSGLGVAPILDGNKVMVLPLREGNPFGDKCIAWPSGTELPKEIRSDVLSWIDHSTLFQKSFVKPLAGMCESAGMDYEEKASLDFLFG
From the text: as §1, §2

human topoisomerase II = biological target: T7, human topoisomerase II (Homo sapiens, UniProt P11388); test: DNA topoisomerase II assay; details: 100 μM
T7 construct: Purified human placenta DNA topoisomerases I and II were purchased from TopoGen, Inc; purchased TopoGen, Inc. (Columbus, OH, USA); host or cells: human placenta (tissue-purified)
T7 sequence (P11388 whole entry): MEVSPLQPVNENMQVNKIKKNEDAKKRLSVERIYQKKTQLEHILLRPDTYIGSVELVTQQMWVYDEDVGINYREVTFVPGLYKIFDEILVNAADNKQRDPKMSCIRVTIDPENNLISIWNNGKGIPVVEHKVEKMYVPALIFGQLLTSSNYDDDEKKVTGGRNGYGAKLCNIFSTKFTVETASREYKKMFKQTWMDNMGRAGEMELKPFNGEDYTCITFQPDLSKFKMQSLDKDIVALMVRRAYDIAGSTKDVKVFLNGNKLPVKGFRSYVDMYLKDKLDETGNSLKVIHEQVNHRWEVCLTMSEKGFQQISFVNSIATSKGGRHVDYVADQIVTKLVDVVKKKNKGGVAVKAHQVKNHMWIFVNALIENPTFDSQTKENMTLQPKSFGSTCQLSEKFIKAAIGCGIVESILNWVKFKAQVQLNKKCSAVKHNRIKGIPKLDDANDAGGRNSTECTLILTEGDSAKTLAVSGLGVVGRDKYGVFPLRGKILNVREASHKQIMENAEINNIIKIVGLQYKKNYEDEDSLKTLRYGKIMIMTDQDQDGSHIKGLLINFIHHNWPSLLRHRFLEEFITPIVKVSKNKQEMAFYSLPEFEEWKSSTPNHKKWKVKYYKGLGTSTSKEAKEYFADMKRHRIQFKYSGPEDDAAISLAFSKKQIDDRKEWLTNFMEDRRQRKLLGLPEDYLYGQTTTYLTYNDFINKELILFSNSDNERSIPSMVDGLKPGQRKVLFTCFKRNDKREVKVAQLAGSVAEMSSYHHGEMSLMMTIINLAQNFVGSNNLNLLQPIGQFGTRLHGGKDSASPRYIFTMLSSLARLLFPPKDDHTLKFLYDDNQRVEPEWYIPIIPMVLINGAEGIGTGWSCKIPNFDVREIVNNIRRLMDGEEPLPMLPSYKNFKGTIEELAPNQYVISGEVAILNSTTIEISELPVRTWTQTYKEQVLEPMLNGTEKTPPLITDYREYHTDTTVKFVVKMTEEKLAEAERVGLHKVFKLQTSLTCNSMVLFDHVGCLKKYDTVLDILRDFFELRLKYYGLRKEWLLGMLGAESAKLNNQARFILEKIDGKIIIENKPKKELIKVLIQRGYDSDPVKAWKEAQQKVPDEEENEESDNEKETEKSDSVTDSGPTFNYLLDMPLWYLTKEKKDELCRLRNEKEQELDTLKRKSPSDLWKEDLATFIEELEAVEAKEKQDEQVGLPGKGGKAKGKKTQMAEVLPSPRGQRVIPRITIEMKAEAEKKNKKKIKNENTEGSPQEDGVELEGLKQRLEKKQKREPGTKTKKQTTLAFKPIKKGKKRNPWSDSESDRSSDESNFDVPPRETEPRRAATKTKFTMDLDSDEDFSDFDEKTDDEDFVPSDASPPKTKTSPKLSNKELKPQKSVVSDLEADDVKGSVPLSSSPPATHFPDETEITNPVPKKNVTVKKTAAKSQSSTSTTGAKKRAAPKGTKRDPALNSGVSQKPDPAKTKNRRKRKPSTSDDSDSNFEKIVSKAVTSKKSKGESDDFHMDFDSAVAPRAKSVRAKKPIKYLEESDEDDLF
From the text: as §1, with “al..” for “al.. A recombinant mouse pol ι tagged with His6 at its C-terminal was expressed and purified by Ni-NTA column chromatography as described elsewhere (Masutani et al., in preparation).”
The activities of calf primase of pol α, human telomerase, T7 RNA polymerase, mouse IMP dehydrogenase, human DNA topoisomerases I and II, T4 polynucleotide kinase and bovine DNase I were measured in standard assays according to the manufacturer’s specifications, as described by Tamiya-Koizumi et al., Oda et al., Nakayama et al., Mizushina et al., Ishimaru et al., Soltis et al. and Lu et al., respectively.

T1 sequence (Q9Y253 1-511): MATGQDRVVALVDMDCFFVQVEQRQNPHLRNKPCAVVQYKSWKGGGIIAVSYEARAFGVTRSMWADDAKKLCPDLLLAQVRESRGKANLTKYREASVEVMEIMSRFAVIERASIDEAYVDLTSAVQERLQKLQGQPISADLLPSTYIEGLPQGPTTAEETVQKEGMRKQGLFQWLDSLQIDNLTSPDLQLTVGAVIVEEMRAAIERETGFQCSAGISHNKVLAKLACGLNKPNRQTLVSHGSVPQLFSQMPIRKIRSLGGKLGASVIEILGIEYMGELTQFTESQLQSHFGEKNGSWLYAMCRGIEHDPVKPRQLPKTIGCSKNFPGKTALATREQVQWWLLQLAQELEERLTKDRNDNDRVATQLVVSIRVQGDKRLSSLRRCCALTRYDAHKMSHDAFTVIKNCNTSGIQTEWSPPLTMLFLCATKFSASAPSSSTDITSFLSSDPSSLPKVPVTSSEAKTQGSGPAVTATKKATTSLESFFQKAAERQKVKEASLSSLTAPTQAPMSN

## C/C=C/c1occ(C(=O)c2c(OC)cc(OC)cc2C(=O)OC)c(=O)c1OC [compound 1, 3-O-methylfunicone]
Human pol η; 100 μM
  effect on pol η activity: selectively inhibit
Human pol η; poly(dA)/oligo(dT)18 and dTTP, 0.05 units enzyme, read-out: 50% inhibition of pol η (IC50)
  IC50: 50.1 µM
Human pol κ; 100 μM
  effect on pol κ activity: selectively inhibit
Human pol κ; poly(dA)/oligo(dT)18 and dTTP, 0.05 units enzyme, read-out: 50% inhibition of pol κ (IC50)
  IC50: 12.5 µM
Rat pol β
  effect on pol β activity: hardly influenced
Calf thymus TdT
  effect on TdT activity: hardly influenced
Fruit fly pol δ
  effect on fruit fly pol δ activity: hardly influenced
T4 pol
  effect on T4 pol activity: no effect
Human topoisomerase II
  effect on human topoisomerase II activity: did not influence
